Measurements: patent publication US9168311B2, “Oligomer-dantrolene conjugates and related compounds” (Nektar Therapeutics, priority 2007, dated 2015)
Where a name gives a salt, the structure may show the parent alone.

Assays:
[1] = pKa and LogP determination with a Sirius GLPKa instrument; type: physicochemical
[2] = biological target: T1, cardiac L-type calcium channel (Homo sapiens, UniProt Q13936); assay: Calcium current (ICa) block, whole-cell patch clamp in isolated human atrial myocytes; type: cell-based; details: for Fold Difference (Parent vs. Derivative): ratio of IC50 at 0.1 Hz, derivative vs. dantrolene; for IC50: read-out: IC50 at 0.1 Hz
T1 construct: Human myocytes were obtained from specimens of human right atrial appendage obtained during surgery; endogenous in cells; host or cells: primary human atrial myocytes isolated from right atrial appendage
T1 sequence (Q13936 whole entry): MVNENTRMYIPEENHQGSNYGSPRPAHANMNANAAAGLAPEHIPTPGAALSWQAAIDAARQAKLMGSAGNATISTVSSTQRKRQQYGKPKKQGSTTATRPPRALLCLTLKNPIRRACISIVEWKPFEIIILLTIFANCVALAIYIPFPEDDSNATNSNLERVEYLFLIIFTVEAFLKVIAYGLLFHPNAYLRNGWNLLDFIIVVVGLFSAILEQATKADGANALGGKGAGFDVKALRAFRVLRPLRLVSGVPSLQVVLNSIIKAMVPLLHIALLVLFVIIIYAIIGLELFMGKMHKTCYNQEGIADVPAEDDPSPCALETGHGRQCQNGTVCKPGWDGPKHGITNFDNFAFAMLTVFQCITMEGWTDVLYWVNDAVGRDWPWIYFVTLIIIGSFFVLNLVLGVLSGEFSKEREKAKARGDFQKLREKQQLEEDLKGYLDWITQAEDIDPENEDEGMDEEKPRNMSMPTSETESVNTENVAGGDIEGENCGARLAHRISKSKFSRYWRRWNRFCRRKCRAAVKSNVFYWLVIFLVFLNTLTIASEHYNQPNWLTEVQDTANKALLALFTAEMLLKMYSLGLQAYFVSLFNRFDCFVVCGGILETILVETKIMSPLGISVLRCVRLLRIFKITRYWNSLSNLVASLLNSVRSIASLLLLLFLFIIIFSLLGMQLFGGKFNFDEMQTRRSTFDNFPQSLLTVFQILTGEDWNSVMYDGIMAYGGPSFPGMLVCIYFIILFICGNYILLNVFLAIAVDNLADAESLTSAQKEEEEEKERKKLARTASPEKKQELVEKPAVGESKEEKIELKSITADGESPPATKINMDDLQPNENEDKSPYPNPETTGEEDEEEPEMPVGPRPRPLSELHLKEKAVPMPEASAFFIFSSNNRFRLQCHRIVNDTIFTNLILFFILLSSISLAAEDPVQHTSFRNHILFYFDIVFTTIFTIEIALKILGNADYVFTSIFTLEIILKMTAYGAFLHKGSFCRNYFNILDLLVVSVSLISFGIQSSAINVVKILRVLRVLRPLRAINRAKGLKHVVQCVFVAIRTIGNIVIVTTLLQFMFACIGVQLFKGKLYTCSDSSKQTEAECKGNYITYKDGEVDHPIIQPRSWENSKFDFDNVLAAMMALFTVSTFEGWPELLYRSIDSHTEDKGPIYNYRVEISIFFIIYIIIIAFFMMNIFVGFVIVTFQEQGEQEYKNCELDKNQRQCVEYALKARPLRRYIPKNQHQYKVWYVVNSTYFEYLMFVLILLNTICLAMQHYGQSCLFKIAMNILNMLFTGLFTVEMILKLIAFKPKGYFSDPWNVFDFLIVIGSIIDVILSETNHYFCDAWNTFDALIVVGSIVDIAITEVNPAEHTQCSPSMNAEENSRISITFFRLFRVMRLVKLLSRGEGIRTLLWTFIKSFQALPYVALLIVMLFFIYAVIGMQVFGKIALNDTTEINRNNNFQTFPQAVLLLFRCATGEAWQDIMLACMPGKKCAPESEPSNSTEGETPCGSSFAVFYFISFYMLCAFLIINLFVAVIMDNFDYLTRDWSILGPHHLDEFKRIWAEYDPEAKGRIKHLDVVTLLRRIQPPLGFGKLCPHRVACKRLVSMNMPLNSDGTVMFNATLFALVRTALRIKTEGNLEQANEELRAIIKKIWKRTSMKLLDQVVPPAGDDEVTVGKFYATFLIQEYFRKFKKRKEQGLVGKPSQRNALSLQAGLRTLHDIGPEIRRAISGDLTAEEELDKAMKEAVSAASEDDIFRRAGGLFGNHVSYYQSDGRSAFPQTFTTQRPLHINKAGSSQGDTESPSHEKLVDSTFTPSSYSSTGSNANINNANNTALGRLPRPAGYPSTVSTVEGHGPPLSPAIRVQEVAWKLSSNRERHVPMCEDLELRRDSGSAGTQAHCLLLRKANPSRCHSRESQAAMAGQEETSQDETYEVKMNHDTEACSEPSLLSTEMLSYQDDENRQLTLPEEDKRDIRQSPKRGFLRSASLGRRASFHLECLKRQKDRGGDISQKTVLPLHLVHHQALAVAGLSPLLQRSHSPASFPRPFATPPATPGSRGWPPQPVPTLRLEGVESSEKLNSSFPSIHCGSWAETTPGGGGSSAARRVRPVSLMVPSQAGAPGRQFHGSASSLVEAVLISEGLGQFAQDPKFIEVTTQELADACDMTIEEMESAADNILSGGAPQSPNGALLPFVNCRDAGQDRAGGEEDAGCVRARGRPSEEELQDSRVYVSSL
T1 sequence (Q08289 whole entry partner): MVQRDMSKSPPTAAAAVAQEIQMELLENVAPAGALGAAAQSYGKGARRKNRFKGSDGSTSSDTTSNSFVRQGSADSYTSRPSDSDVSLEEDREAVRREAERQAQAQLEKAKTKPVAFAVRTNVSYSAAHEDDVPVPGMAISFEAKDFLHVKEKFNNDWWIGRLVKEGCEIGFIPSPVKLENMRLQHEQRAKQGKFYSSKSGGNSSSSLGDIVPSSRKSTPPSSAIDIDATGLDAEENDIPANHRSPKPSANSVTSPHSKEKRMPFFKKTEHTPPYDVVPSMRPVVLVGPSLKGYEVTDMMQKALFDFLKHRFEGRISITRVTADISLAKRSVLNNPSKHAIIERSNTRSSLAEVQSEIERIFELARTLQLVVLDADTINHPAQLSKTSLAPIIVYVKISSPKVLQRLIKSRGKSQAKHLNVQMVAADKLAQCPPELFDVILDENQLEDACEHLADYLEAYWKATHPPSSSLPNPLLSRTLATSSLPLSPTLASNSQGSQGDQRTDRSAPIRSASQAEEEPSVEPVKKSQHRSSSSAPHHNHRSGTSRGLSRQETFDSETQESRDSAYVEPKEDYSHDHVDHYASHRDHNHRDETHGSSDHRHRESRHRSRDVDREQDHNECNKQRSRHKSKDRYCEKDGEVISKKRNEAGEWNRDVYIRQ
T1 sequence (P54289 25-956 partner limits assumed): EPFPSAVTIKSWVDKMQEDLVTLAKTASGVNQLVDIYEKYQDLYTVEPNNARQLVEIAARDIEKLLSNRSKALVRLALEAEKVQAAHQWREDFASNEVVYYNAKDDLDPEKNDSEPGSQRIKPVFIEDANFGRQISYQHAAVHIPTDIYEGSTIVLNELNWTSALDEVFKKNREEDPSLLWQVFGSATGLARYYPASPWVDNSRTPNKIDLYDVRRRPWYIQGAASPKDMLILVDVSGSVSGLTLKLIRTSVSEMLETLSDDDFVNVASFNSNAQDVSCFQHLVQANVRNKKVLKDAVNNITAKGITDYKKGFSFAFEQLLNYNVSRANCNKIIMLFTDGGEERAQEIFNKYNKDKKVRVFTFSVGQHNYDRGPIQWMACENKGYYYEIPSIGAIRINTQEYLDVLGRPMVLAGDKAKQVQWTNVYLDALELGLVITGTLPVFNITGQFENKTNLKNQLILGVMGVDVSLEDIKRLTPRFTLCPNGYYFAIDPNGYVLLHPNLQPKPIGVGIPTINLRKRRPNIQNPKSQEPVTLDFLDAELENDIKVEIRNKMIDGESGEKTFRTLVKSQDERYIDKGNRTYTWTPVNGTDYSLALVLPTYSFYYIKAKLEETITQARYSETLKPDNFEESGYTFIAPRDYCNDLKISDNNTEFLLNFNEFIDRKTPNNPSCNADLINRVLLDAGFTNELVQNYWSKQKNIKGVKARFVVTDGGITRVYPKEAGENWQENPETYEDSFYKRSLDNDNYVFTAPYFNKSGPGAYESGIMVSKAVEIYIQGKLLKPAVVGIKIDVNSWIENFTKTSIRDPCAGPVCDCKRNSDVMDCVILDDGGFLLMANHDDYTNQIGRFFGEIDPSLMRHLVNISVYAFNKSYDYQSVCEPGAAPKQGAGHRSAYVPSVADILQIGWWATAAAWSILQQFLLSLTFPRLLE
T1 sequence (P54289 957-1103 partner limits assumed): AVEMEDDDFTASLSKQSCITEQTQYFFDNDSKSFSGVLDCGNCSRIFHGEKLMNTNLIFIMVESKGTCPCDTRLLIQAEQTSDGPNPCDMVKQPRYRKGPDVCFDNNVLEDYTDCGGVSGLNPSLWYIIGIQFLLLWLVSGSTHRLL
Experimental: Human myocytes were obtained from specimens of human right atrial appendage obtained during surgery from hearts of patients undergoing cardiopulmonary bypass. The isolation procedure produced rod-shaped, calcium tolerant cells which were used within 24 hours after isolation (Crumb et al., (1995) Am J Physiol 268:H1335-H1342).
The whole-cell patch clamp technique was carried out at 23±1° C. with precise micromanipulation under high power visual magnification to measure calcium currents. Glass pipettes were fire polished to produce tip diameters of 1-4 μm. The tip of the pipette, filled with electrolyte “internal” solution (a composition of (mM): 120 CsCl, 20 TEACl, 5 NaCl, 1 CaCl2, 10 EGTA, 10 HEPES, 5 MgATP, 0.2 Na2GTP, adjusted to pH 7.2 with CsOH) was positioned onto a cell. The cell was in a bathing “external” solution (consisting of (mM): 1.8 CaCl2, 137 NaCl, 20 CsCl, 4 KCl, 1 MgCl2, 10 HEPES, 10 dextrose, pH=7.4 with NaOH). Pipette tip resistance was approximately 1.0 to 2.0 MΩ when filled with the internal solution. Suction was then applied to the pipette interior to seal the cell membrane onto the tip. Another suction pulse then broke the membrane, establishing electrical access into the interior of the cell. The cellular interior then became dialysed by the solution the patch pipette was filled with.
After rupture of the cell membrane (entering whole-cell mode), current kinetics and amplitudes were allowed to stabilize (currents elicited by a series of voltage pulses given at 0.1 Hz were superimposed) as the cell was dialyzed with internal solution and paced at 1 Hz (3-5 minutes). Calcium current (ICa) was measured using a voltage pulse to 0 mV (200 ms duration) from a holding potential of −60 mV. Only a pacing rate of 0.1 Hz was used. Test article, at concentrations of 0.1, 1, 3, 10, 30, and […] was added in a cumulative manner to a cell.
Currents and voltages were recorded with patch-clamp amplifiers (Axopatch 1-B, Axon Instruments, Foster City, Calif.). Creation of voltage clamp pulses and data acquisition was controlled by a computer using electrophysiology software (pCLAMP version 9.2, Axon Instruments, Foster City, Calif.). […] Each cell served as its own control.
All stock solutions (10 mM) were made by adding DMSO directly into the bottle containing the test article.
Approximate IC50 values (Table 1) were obtained from non-linear regression analysis of dose-response curves (FIG. 1) using GraphPad's Prism 5.01 software. Data was also analyzed for mean percent inhibition±SEM at the highest concentration tested, 100 μM (FIG. 2).
To test for cell sensitivity, 0.1 μM nisoldipine was added after exposure to test article.

| Structure (SMILES) | IC50 [2] [mM] | reduction Ica ([2]; 0.1 μM nisoldipine added after exposure to test article, 2 cells, cell sensitivity test) [%] | block of Ica amplitude ([2]; at 100 μM, 0.1 Hz, isolated human atrial myocytes) [%] | pKa [1] | Fold Difference (Parent vs. Derivative) [2] | logP [1] |
| --- | --- | --- | --- | --- | --- | --- |
| O=C1CN(/N=C/c2ccc(-c3ccc([N+](=O)[O-])cc3)o2)C(O)=N1 [Dantrolene sodium salt, reference compound] |  |  |  | 7.11 |  |  |
| COCCOCCOCCOc1cc([N+](=O)[O-])ccc1-c1ccc(C=NN2CC(=O)NC2=O)o1 [mPEG3-O-Dantrolene, mPEG3-O-dantrolene] |  |  |  | 8.69 | 1144 | -0.6 |
| COCCOCCOCCN1C(=O)CN(N=Cc2ccc(-c3ccc([N+](=O)[O-])cc3)o2)C1=O [mPEG3-N-Dantrolene, mPEG3-N-dantrolene] |  |  |  |  | 1067 |  |
| COCCOCCOCCOCCOCCOc1cc([N+](=O)[O-])ccc1-c1ccc(C=NN2CC(=O)NC2=O)o1 [mPEG5-O-Dantrolene, mPEG5-O-dantrolene] | 54.3 |  |  | 7.49 | 522 | 0.74 |
| COCCOCCOCCOCCOCCOCCOCCOc1cc([N+](=O)[O-])ccc1-c1ccc(C=NN2CC(=O)NC2=O)o1 [mPEG7-O-Dantrolene, mPEG7-O-dantrolene] | 46.2 |  |  | 7.32 | 444 | 0.62 |

The next lines start with results.

| IC50 [2] [mM] | reduction Ica ([2]; 0.1 μM nisoldipine added after exposure to test article, 2 cells, cell sensitivity test) [%] | block of Ica amplitude ([2]; at 100 μM, 0.1 Hz, isolated human atrial myocytes) [%] | Structure (SMILES) | pKa [1] | Fold Difference (Parent vs. Derivative) [2] | logP [1] |
| --- | --- | --- | --- | --- | --- | --- |
| 27 |  |  | COCCOCCOCCOCCOCCN1C(=O)CN(N=Cc2ccc(-c3ccc([N+](=O)[O-])cc3)o2)C1=O [mPEG5-N-Dantrolene, mPEG5-N-dantrolene] |  | 260 |  |
|  | 100 |  | COC(=O)C1=C(C)NC(C)=C(C(=O)OCC(C)C)C1c1ccccc1[N+](=O)[O-] (centres unmarked) [nisoldipine, reference compound] |  |  |  |
| 0.193 |  |  | COCCOCCOCCOCCOCCOCCOCCN1C(=O)CN(N=Cc2ccc(-c3ccc([N+](=O)[O-])cc3)o2)C1=O [mPEG7-N-Dantrolene, mPEG7-N-dantrolene] |  | 2 |  |
| 0.104 |  | 21.1 | O=C1CN(/N=C/c2ccc(-c3ccc([N+](=O)[O-])cc3)o2)C(O)=N1 [Dantrolene] |  |  |  |
